Values quoted from earlier work in patent US20020035037A1, “CONTROL OF SCLEROTIUM CEPIVORUM IN ALLIUM PLANTS” (priority 1991, published 2002).

Test system: Sclerotium cepivorum
Settings: iprodione 125 g/kg seed as seed treatment; procymidon 4-6 kg/ha as soil treatment; particularly with heavy infestation

Row | SMILES | effectiveness of control of Sclerotium cepivorum
1 | CC(C)NC(=O)N1CC(=O)N(c2cc(Cl)cc(Cl)c2)C1=O [iprodione] | not effective
2 | CC12CC1(C)C(=O)N(c1cc(Cl)cc(Cl)c1)C2=O (centres unmarked) [procymidon] | not effective
